Source: ChEMBL document CHEMBL1151533, “Dihydropyrimidine calcium channel blockers 51: bicyclic dihydropyrimidines as potent mimics of dihydropyridines” (Bioorg Med Chem Lett, 1991)

Species: Oryctolagus cuniculus
Test: Compound was evaluated for vasorelaxant activity determined using potassium-depolarized rabbit thoracic aorta
Assay type: functional

Going from `CC1=Nc2cc(=O)n(C(=O)c3ccccc3)n2C(c2cccc([N+](=O)[O-])c2)/C1=C(/O)OC(C)C` (configuration not stated) to `CC1=Nc2cc(=O)n(Cc3ccccc3)n2C(c2cccc([N+](=O)[O-])c2)/C1=C(/O)OC(C)C` (configuration not stated), the IC50 falls from 54 nM to 5 nM (11-fold).

Compared with `CC1=Nc2cc(=O)[nH]n2C(c2cccc([N+](=O)[O-])c2)/C1=C(/O)OC(C)C` (configuration not stated), `CCCNC(=O)n1c(=O)cc2n1C(c1cccc([N+](=O)[O-])c1)/C(=C(/O)OC(C)C)C(C)=N2` (configuration not stated) is 14-fold lower in IC50: 318 nM for the first, 23 nM for the second.

Compared with `CCO/C(O)=C1/C(C)=Nc2ccnn2C1c1cccc(Cl)c1Cl` (configuration not stated), `CCO/C(O)=C1/C(C)=Nc2nccn2C1c1cccc(Cl)c1Cl` (configuration not stated) is 4.6-fold higher in IC50: 21 nM for the first, 96 nM for the second.

Going from `CC1=Nc2c(C#N)cnn2C(c2cccc([N+](=O)[O-])c2)/C1=C(/O)OC(C)C` (configuration not stated) to `CC1=Nc2c(C(N)=O)cnn2C(c2cccc([N+](=O)[O-])c2)/C1=C(/O)OC(C)C` (configuration not stated), the IC50 rises from 7 nM to over 1000 nM. The first is the more potent here.

Compared with `COC(=O)c1cnn2c1N=C(C)/C(=C(\O)OC(C)C)C2c1cccc([N+](=O)[O-])c1` (configuration not stated), `CC1=Nc2cc(=O)n(S(=O)(=O)c3ccccc3)n2C(c2cccc([N+](=O)[O-])c2)/C1=C(/O)OC(C)C` (configuration not stated) is 120-fold lower in IC50: 1160 nM for the first, 10 nM for the second. The second is the more potent here.

Compared with `CCOC(=O)N1C(=S)N=C(C)/C(=C(/O)OCC)C1c1cccc([N+](=O)[O-])c1` (configuration not stated), `CCO/C(O)=C1/C(C)=Nc2c(C#N)cnn2C1c1cccc(Cl)c1Cl` (configuration not stated) is 2-fold lower in IC50: 3 nM for the first, 1.5 nM for the second.

First: CCOC(=O)C1=C(C)N=C2NCCCN2C1c1cccc(Cl)c1Cl (configuration not stated)
Second: CCO/C(O)=C1/C(C)=Nc2nc(SC)nn2C1c1cccc(Cl)c1Cl (configuration not stated)
The IC50 of the first is 4.7-fold higher: 2890 nM for the first, 620 nM for the second. The second is the more potent here.

`COC(=O)C1=C(C)NC(C)=C(C(=O)OC)C1c1ccccc1[N+](=O)[O-]` [NIFEDIPINE] showed an IC50 of 2.5 nM.

Each compound was assayed on Rattus norvegicus (assay: In vivo antihypertensive activity of compound was determined at 45 umol/kg administered orally in spontaneously hypertensive rats; % reduction in blood pressure).
Assay type: functional

In order of falling Reduction:
1. COC(=O)C1=C(C)NC(C)=C(C(=O)OC)C1c1ccccc1[N+](=O)[O-] [NIFEDIPINE]  33%
2. CCO/C(O)=C1/C(C)=Nc2c(C#N)cnn2C1c1cccc(Cl)c1Cl (configuration not stated)  20%
